**Q.** With COc1ccc(/C=C/C(=O)N2CCN(C(=O)c3cc(C(F)(F)F)cc(C(F)(F)F)c3)[C@H](Cc3ccc(C)c(C)c3)C2)cc1 as the compound, how does the melting point read?
**A.** 67 to 76 °C

**Q.** With CSCc1nnc2n1-c1sc(Cl)cc1C(c1ccccc1Cl)=NC2 as the compound, how does the melting point read?
**A.** 200 to 202 °C

**Q.** With C=CC12CCc3cc(O)ccc3C1=CCC1(C)C(O)CCC21 (stereo not given) as the compound, how does the melting point read?
**A.** 149 to 150 °C

**Q.** Which melting point does the source give for Cc1[nH]cnc1CSCCNc1[nH]cc(Cc2ccccc2)c1[N+](=O)[O-] here?
**A.** 192 to 193 °C

**Q.** For CCOC(=O)Cc1ccc(-c2cn3ccsc3n2)cc1, which melting point is on record?
**A.** 117 to 119 °C

**Q.** For CC1(C(=O)c2c[nH]c3ncc(-c4cccc(N5CCN(S(N)(=O)=O)CC5)c4)nc23)CCCCC1, which melting point is on record?
**A.** 233 to 235 °C

**Q.** For O=C(O)CCCC(=O)c1cc2c(=O)c3ccccc3ccc2s1, which melting point is on record?
**A.** 149 to 151 °C

**Q.** For Cc1nc(C)c2c(n1)N(Cc1ccc(-c3ccccc3-c3nnn[nH]3)cc1)C(=O)C2, which melting point is on record?
**A.** 228 to 229 °C

**Q.** For Oc1ccc(C2=NCCCO2)cc1, which melting point is on record?
**A.** 196 to 198 °C

**Q.** For CC(C)(CN1CCC(CNC(=O)N2C(=O)C3(CCCC3)c3ccccc32)CC1)C(=O)O, which melting point is on record?
**A.** 189 °C

**Q.** For Cc1c[nH]c(Nc2ccc(C3=NNC(=O)CC3C)cc2)nc1=O (stereo not given), which melting point is on record?
**A.** 260 to 270 °C

**Q.** For CCOP(=O)(OCC)C(CCc1cc(C)nc2cc(OC(=O)c3ccccc3)nn12)P(=O)(OCC)OCC, which melting point is on record?
**A.** 56 to 57 °C

**Q.** With CCn1cc(C(=O)O)c(=O)c2c(F)c(F)c(N3CCOCC3)c(F)c21 as the compound, how does the melting point read?
**A.** 281 to 283 °C

**Q.** Which melting point does the source give for CCC(CC)Nc1ccc2c(c1)N1CCCN=C1S2 here?
**A.** 114 °C

**Q.** Which melting point does the source give for Clc1cccnc1-c1cc(OCCc2ccccn2)c2[nH]nc(Nc3nccs3)c2c1 here?
**A.** 185 to 187 °C

**Q.** For c1ccc2c(c1)CC1=C2CCCC1, which melting point is on record?
**A.** 57 °C

**Q.** For CCOC(=O)Cc1ccc(-c2ccc3c(=O)c(C(=O)NC)c(N)n(CC)c3n2)cc1, which melting point is on record?
**A.** 195 °C

**Q.** With Cc1cc(OCCOc2ccc3ccccc3c2)ccc1C(=O)C(=O)O as the compound, how does the melting point read?
**A.** 129 to 131 °C

**Q.** Which melting point does the source give for CC(=O)c1ccc2c(c1)OCC(=O)N2 here?
**A.** 197 to 198 °C

**Q.** For CCCOc1c(-c2cc(C=CC(=O)O)ccc2OC)cc(C(C)(C)C)cc1C(C)(C)C, which melting point is on record?
**A.** 107 to 109 °C

**Q.** For O=C1OC(=O)c2nc3ccccc3cc21, which melting point is on record?
**A.** 225 to 228 °C

**Q.** For CC(C)[C@H](NC1CCCCC1)C(=O)O, which melting point is on record?
**A.** > 300 °C

**Q.** Which melting point does the source give for COCCc1ccc(OCC(O)CN2CCC(N3CCCNC3=O)CC2)cc1 (stereo not given) here?
**A.** 113 to 115 °C

**Q.** With O=C(O)c1ccsc1C(F)F as the compound, how does the melting point read?
**A.** 127 to 128 °C

**Q.** For CC1Oc2ccc(CN3CCN(c4ccc(Cl)cn4)CC3)cc2NC1=O (stereo not given), which melting point is on record?
**A.** 197 to 198 °C

**Q.** With CN(C)CCNC(=O)c1cccc2c1c(C(=O)C(=O)NC1=CC(=O)OC1)cn2Cc1ccc(Cl)cc1 as the compound, how does the melting point read?
**A.** 225 to 227 °C

**Q.** For COC1=C(c2cccc(C(F)(F)F)c2)C(=O)N(C(C)(C)C)C1, which melting point is on record?
**A.** 129 °C

**Q.** For COc1ccc2c(n1)c(C=O)c1n2Cc2ccccc2-1, which melting point is on record?
**A.** 229 to 230 °C

**Q.** With O=C(O)c1ccc2sc3ccccc3c(=O)c2c1 as the compound, how does the melting point read?
**A.** 310 to 316 °C

**Q.** With CC(C)(C)OC(=O)N1CCC[C@H]1Cn1ccc2c3ccn(Cc4ccc(F)cc4)c(=O)c3ccc21 as the compound, how does the melting point read?
**A.** 144 to 145 °C

**Q.** For Cc1ccccc1-c1ccc(C(=O)N2Cc3ccc(C(=O)NCc4ccc(Cl)cc4)n3Cc3ccccc32)cc1C, which melting point is on record?
**A.** 196 to 197 °C

**Q.** Which melting point does the source give for O=C(NNc1ccc(Br)cc1)c1c(F)cccc1F here?
**A.** 172 °C

**Q.** Which melting point does the source give for O=C(O)[C@H](Cc1cncn1COCc1ccccc1)NS(=O)(=O)CCc1ccccc1 here?
**A.** 223 to 233 °C

**Q.** Which melting point does the source give for CCCCNC(=O)COC1c2ccccc2C(=O)N1c1ccc2ccc(OC)nc2n1 (stereo not given) here?
**A.** 170 °C

**Q.** For COc1c(N2CCC(n3ccnn3)C2)c(F)cc2c(=O)c(C(=O)O)cn(C3CC3)c12 (stereo not given), which melting point is on record?
**A.** 200 to 201 °C

**Q.** For COc1cc(COc2nn(-c3ccccc3)cc2C(C[N+](=O)[O-])C[N+](=O)[O-])ccc1OCc1nc(-c2ccco2)oc1C, which melting point is on record?
**A.** 126 to 127 °C

**Q.** Which melting point does the source give for CCCCN1CCN(CCCC)C2SC(=C3C(=O)CC(c4ccccc4)CC3=O)SC21 (stereo not given) here?
**A.** 130 to 132 °C

**Q.** Which melting point does the source give for CCn1cc(C(=O)O)c(=O)cc1-c1ccc2c(c1)OCO2 here?
**A.** 269 to 270 °C

**Q.** Which melting point does the source give for COc1cc(OC)nc(Oc2ccc(N)nc2C(=O)ON=C(C)C)n1 here?
**A.** 210 to 214 °C

**Q.** For CC1(C)Cc2c(c(N3CCOCC3)nc3sc4c(NCc5cnc6ccccc6c5)ncnc4c23)CO1, which melting point is on record?
**A.** 272 to 273 °C

**Q.** For NC(=O)c1n[nH]c(-c2ccc(Cl)cc2)c1-c1ccc(S(N)(=O)=O)cc1, which melting point is on record?
**A.** 108 to 110 °C

**Q.** Which melting point does the source give for COc1cc([N+](=O)[O-])c(F)cc1Cl here?
**A.** 69 to 70 °C

**Q.** With CCn1ncc2c3c(NCc4ccc(OC)c(Cl)c4)nnc(-n4cnc(C(=O)NC)c4)c3cnc21 as the compound, how does the melting point read?
**A.** 181 to 183 °C

**Q.** Which melting point does the source give for CNC(=O)C1CCCN1S(=O)(=O)c1ccc(N2CCC(NC[C@H](O)COc3cccc4[nH]c(=O)[nH]c34)CC2)cc1 (stereo not given in full) here?
**A.** 36 to 39 °C

**Q.** Which melting point does the source give for CCCc1nc2ccccc2n1Cc1ccc(-c2ncccc2C(=O)O)cc1 here?
**A.** 238 to 239 °C

**Q.** Which melting point does the source give for CSc1ccc(/C=C2/C(C)=C(CCO)c3cc(F)ccc32)cc1 here?
**A.** 101 to 103 °C

**Q.** Which melting point does the source give for Cc1cnc(N)c(=O)n1C here?
**A.** 217 to 219 °C

**Q.** For COc1ccc(C2CN(C(C)=O)C(=O)O2)cc1OC (stereo not given), which melting point is on record?
**A.** 175 to 182 °C

**Q.** For CCCCc1c(-c2cccnn2)ssc1=S, which melting point is on record?
**A.** 94 °C

**Q.** Which melting point does the source give for O=C(NC(=O)c1ccccc1F)Nc1ccc(F)c(C(F)(F)F)c1Cl here?
**A.** 173 °C

From a melting point compilation (Tetko et al.; mined from patent text by program, amines drawn as free bases though some values may be those of a salt)
